In patent publication US20240058450A1, “BCL-XL Inhibitory Compounds Having Low Cell Permeability and Antibody Drug Conjugates Including the Same” (AbbVie Inc., priority 2014, published 2024):
Like-named read-outs stand apart in the source and are kept apart here.

Tests used:
circulating platelets [1] = assay: Number of circulating platelets in mice after a single intraperitoneal injection (thrombocytopenia); details: for thrombocytopenia: after injection of the compound; for Lowest thrombocyte count / Time to lowest count: single intraperitoneal injection
[2] = system: permeabilized Molt-4 cells; assay: JC-1 percent depolarization assay in digitonin permeabilized Molt-4 cells; format: cell-based; details: Homo sapiens
Text: In addition to cytochrome c release, mitochondria undergoing apoptosis frequently lose their transmembrane mitochondrial membrane potential (Bouchier-Hayes et al., 2008, Methods 44(3): 222-228). JC-1 is a cationic carbocyanine dye that accumulates in mitochondria and fluoresces red when mitochondria are healthy and is lost when the mitochondrial membrane is compromised (percentage depolarization; Smiley et al., 1991, Proc. Natl. Acad. Sci. USA, 88: 3671-3675; Reers et al., 1991: Biochemistry, 30: 4480-4486). This loss in signal can be detected in permeabilized cells using a fluorimeter (excitation 545 nm and emission of 590 nm) and is therefore fully quantitative, enhancing both reproducibility and throughput. Specifically, digitonin permeabilized molt-4 cells (75,000/well) were treated with Bcl-xL inhibitors (1000 nM-0.00 nM) for up to 180 minutes at 32° C., with fluorescence determined every 10 minutes. At the maximal signal, the percentage depolarization can be determined for each time concentration of Bcl-xL inhibitors according to the formula:
% Depolarization=1−[(Sample−FCCP)/(DMSO−FCCP)]
DMSO and FCCP (10 μM) are used as negative and positive controls respectively (Ryan & Letai, 2013, Methods 61(2): 156-164). EC50 values were subsequently determined from the resulting concentration-response curves. Good alignment was observed when the ability of Bcl-xL inhibitors to induce cytochrome c release was compared to loss in JC-1 fluorescence in permeabilized Molt-4 cells.

[3] = system: permeabilized Bcl-xL dependent Molt-4 cells; assay: Cytochrome C release in selectively (digitonin) permeabilized Molt-4 cells; format: cell-based, human; details: Homo sapiens, MOLT-4, 4 h, 4 h treatment, read-out: Molt-4 Permeabilized Cyt C Release
In short: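 Bcl-xL-dependent Molt-4 cells (1×10^6) treated 4 h at 37° C, 5% CO2 with compound in half-log dilutions from 3.0 to 0.01 μM. Plasma membrane selectively permeabilized with digitonin to wash out cytosolic cytochrome C released from mitochondria; release measured as apoptosis proxy.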

[4] = system: Molt-4 human acute lymphoblastic leukemia cells; assay: Molt-4 cell viability assay (CellTiter-Glo, 48 hours, 10% HS); format: cell-based; details: Homo sapiens, MOLT-4, 48 h, non-permeabilized cells
In short: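 Cells were seeded at 12,500 per well in medium with 10% human serum and exposed to a 3-fold compound dilution series from 10 μM to 0.0005 μM. After 48 h, viable cells were quantified by CellTiter-Glo luminescence. Each concentration was run in duplicate on at least 3 occasions.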

Bcl-xL = Bcl-xL (Homo sapiens, UniProt Q07817); assay: Time Resolved-Fluorescence Resonance Energy Transfer (TR-FRET) binding assay, competition with probe F-Bak
Sequence of Bcl-xL (Q07817 whole entry): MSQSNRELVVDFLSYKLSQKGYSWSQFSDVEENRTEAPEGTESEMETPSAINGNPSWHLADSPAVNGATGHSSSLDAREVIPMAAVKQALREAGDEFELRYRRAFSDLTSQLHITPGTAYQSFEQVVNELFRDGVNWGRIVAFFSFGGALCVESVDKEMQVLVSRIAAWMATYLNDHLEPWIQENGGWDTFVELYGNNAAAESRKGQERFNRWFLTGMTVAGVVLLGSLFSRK
In short: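 Compounds compete with F-Bak probe for GST-Bcl-xL detected by Tb-anti-GST antibody. Serial dilutions from 50 μM (2× stock) incubated 2 h at room temperature, then read at 340 nm excitation, 520 and 495 nm emission. Ki by Wang's equation, tested without and with 1% human serum.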

circulating platelets [5] = details: mouse, in vivo
[6] = in the presence of 1% HS, read-out: Bcl-xL Binding Ki (nM, 1% HS)
[7] = without HS, read-out: Bcl-xL Binding Ki

SMILES	EC50 [2] [nM]	EC50 [4] [nM]	Ki (Bcl-xL; [6]) [nM]	Ki (Bcl-xL; [7]) [nM]	further results
CNCCOC12CC3(C)CC(C)(CC(Cn4ncc(-c5ccc(N6CCc7cccc(C(=O)Nc8nc9ccccc9s8)c7C6)nc5C(=O)O)c4C)(C3)C1)C2 [Example 1.13.7, 6-[8-(1,3-benzothiazol-2-ylcarbamoyl)-3,4-dihydroisoquinolin-2 (1H)-yl]-3-[1-({3,5-dimethyl-7-[2-(methylamino)ethoxy]tricyclo[3.3.1.1^3,7]dec-1-yl}methyl)-5-methyl-1H-pyrazol-4-yl]pyridine-2-carboxylic acid]	–	–	–	–	time of maximal thrombocytopenia following injection (circulating platelets [1]): 6 h; thrombocytopenia (circulating platelets [1]): caused thrombocytopenia; platelet number after dosing (circulating platelets [1]; dose of 0.61 mg/kg): 6*10^3 /mm^3; decrease of platelet number (circulating platelets [1]; dose of 0.61 mg/kg, from normal count of approximately 6*10^5/mm^3): 100 fold; Lowest thrombocyte count (circulating platelets [1]; dose 0.61 mg/kg): 6 1/10^3 of the platelet#/mm^3; Time to lowest count (circulating platelets [1]; dose 0.61 mg/kg): 6 h
Cc1c(-c2ccc(N3CCc4cccc(C(=O)Nc5nc6ncccc6s5)c4C3)nc2C(=O)O)cnn1CC12CC3(C)CC(C)(C1)CC(OCCNCCS(=O)(=O)O)(C3)C2 [Example 1.23, 3-{1-[(3,5-dimethyl-7-{2-[(2-sulfoethyl)amino]ethoxy}tricyclo[3.3.1.1^3,7]dec-1-yl)methyl]-5-methyl-1H-pyrazol-4-yl}-6-[8-([1,3]thiazolo[4,5-b]pyridin-2-ylcarbamoyl)-3,4-dihydroisoquinolin-2 (1H)-yl]pyridine-2-carboxylic acid]	0.24	2720	0.1	0.006	EC50 [3]: < 0.5 nM
CNCCOC12CC3(C)CC(C)(CC(Cn4ncc(-c5ccc(N6CCc7c(OCC(=O)O)ccc(C(=O)Nc8nc9ccccc9s8)c7C6)nc5C(=O)O)c4C)(C3)C1)C2 [Example 1.41, 6-[8-(1,3-benzothiazol-2-ylcarbamoyl)-5-(carboxymethoxy)-3,4-dihydroisoquinolin-2 (1H)-yl]-3-[1-({3,5-dimethyl-7-[2-(methylamino)ethoxy]tricyclo[3.3.1.1^3,7]dec-1-yl}methyl)-5-methyl-1H-pyrazol-4-yl]pyridine-2-carboxylic acid]	0.56	473	0.81	0.008	EC50 [3]: < 0.5 nM
Cc1c(-c2ccc(N3CCc4cccc(C(=O)Nc5nc6ccccc6s5)c4C3)nc2C(=O)O)cnn1CC12CC3CC(CC(C3)C1)C2 [Example A-1331852, reference compound]	–	–	–	–	time of maximal thrombocytopenia following injection (circulating platelets [1]): 6 h; thrombocytopenia (circulating platelets [1]): caused thrombocytopenia; Lowest thrombocyte count (circulating platelets [1]; dose 25 mg/kg): 9 1/10^3 of the platelet#/mm^3; Time to lowest count (circulating platelets [1]; dose 25 mg/kg): 6 h
CC1(C)CCC(c2ccc(Cl)cc2)=C(CN2CCN(c3ccc(C(=O)NS(=O)(=O)c4ccc(N[C@H](CCN5CCOCC5)CSc5ccccc5)c(S(=O)(=O)C(F)(F)F)c4)cc3)CC2)C1 [Navitoclax]	–	–	–	–	thrombocytopenia (circulating platelets [5]): caused thrombocytopenia; time of maximal thrombocytopenia following injection (circulating platelets [5]): 6 h; Time to lowest count (circulating platelets [5]; ip, 100 mg/kg): 6 h; Lowest thrombocyte count (circulating platelets [5]; ip, 100 mg/kg, 6 h): 10 1/10^3 of the platelet#/mm^3

More lines, main results first:

EC50 [2] [nM]	EC50 [4] [nM]	Ki (Bcl-xL; [6]) [nM]	Ki (Bcl-xL; [7]) [nM]	SMILES	further results
0.06	378	0.55	< 0.01	Cc1c(-c2ccc(-c3ccc4cccc(C(=O)Nc5nc6ccccc6s5)c4c3)nc2C(=O)O)cnn1CC12CC3(C)CC(C)(C1)CC(OCCNCCCO[C@@H]1O[C@H](C(=O)O)[C@@H](O)[C@H](O)[C@H]1O)(C3)C2 [Example 1.87, 3-{[2-({3-[(4-{6-[8-(1,3-benzothiazol-2-ylcarbamoyl)naphthalen-2-yl]-2-carboxypyridin-3-yl)-5-methyl-1H-pyrazol-1-yl)methyl]-5,7-dimethyltricyclo[3.3.1.1^3,7]dec-1-yl}oxy)ethyl]amino}propyl beta-D-glucopyranosiduronic acid]	–
0.21	96	3	0.127	CNCCOC12CC3(C)CC(C)(CC(Cn4ncc(-c5ccc(-c6ccc7c[n+]([O-])cc(C(=O)Nc8nc9ccccc9s8)c7c6)nc5C(=O)O)c4C)(C3)C1)C2 [Example 1.88, 6-[4-(1,3-benzothiazol-2-ylcarbamoyl)-2-oxidoisoquinolin-6-yl]-3-[1-({3,5-dimethyl-7-[2-(methylamino)ethoxy]tricyclo[3.3.1.1^3,7]dec-1-yl}methyl)-5-methyl-1H-pyrazol-4-yl]pyridine-2-carboxylic acid]	–
